Source: patent US5932743A, “Methods for the solid phase synthesis of substituted indole compounds” (American Home Products Corporation, priority 1998, dated 1999)

Target: T1, human estrogen receptor (Homo sapiens, UniProt P03372)
T1 construct: expressed in transfected cells; host or cells: Chinese Hamster Ovary cells (CHO), stably transfected
T1 sequence (P03372 1-595): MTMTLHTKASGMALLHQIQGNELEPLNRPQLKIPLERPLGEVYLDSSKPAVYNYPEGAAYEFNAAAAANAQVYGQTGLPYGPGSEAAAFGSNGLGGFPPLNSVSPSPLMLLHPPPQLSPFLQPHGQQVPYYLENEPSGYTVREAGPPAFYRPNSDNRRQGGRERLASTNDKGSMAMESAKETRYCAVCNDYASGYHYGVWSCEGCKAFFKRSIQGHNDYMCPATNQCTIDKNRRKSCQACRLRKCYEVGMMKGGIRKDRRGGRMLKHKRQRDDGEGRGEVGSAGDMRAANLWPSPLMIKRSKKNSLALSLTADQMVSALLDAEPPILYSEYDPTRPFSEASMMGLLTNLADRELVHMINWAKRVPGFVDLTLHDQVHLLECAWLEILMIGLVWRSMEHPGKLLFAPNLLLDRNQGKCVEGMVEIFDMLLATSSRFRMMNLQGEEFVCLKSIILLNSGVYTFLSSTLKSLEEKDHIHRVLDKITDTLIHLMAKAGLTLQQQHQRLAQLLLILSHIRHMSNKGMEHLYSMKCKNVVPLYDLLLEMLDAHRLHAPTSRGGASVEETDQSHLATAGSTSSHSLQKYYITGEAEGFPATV
Assay: 2X VIT ERE Transfection Assay (estrogen receptor assay; luciferase reporter activity compared to 17β-estradiol in CHO cells stably transfected with the human estrogen receptor)
Type: cell-based
Conditions: 1 μM compound
Method: Enhancement of luciferase gene expression in this model is dependent upon estrogen receptor (ER) interaction with a vitellogenin gene estrogen responsive element (ERE) capable of enhancing basal promoter activity. This is a sensitive and rapid methodology to assess estrogenic/antiestrogenic potency of compounds.
48 h prior to treatment the growth medium is replaced with DMEM lacking phenol red+10% dextran coated charcoal stripped FBS (treatment medium). Cells are plated at a density of 5000 cells/well in 96-well plates containing 200 μL of medium/well.
20 μL of this mixture is added to each well of cells and remains on the cells for 16 h. […] Each treatment condition is performed on 8 wells (n=8) which are incubated for 24 h prior to luciferase assay.
The data is logged and automatically sent to a JMP statistical program for analysis. A hard copy printout is also produced at the time of the assay.
A plate containing a standard curve (0.1 to 1.5 milliunits in triplicate) is set up for each experimental run. The plates are analyzed on a Molecular Devices spectrophotometric plate reader at 410 nm. The optical densities for the unknowns are converted to milliunits of activity by mathematical extrapolation from the standard curve. […] The mean and standard deviation is determined from a n=8 for each treatment.

estrogenic classification / activity in words: estrogenic
Compound: CCOC(=O)Cn1c(-c2ccccc2)c(C2=C(C(=O)OC)CCC2)c2ccc(C(=O)O)cc21 [Example 12, 1-Ethoxycarbonylmethyl-3-(2-methoxycarbonyl-cyclopent-1-enyl)-2-phenyl-1H-indole-6-carboxylic Acid]
